# In patent US10793574B2, “TYK2 inhibitors and uses thereof” (Nimbus Lakshmi, Inc., priority 2016, dated 2020):
# Columns and labels:
# TYK2 JH1 kinase = TYK2 JH1 kinase (Homo sapiens (Human), UniProt P29597); experiment: Tyk2 radioactive kinase assay; format: biochemical; settings: active kinase assay, ATP 10 μM
# Experimental: (§1) Peptide substrate, [KKSRGDYMTMQIG], (20 μM) is prepared in reaction buffer (20 mM Hepes pH 7.5, 10 mM MgCl2, 1 mM EGTA, 0.02% Brij35, 0.02 mg/mL BSA, 0.1 mM […], 2 mM DTT, 1% DMSO. TYK2 (Invitrogen) kinase is added, followed by compounds in DMSO. 33PATP is added to initiate the reaction in ATP at 10 μM. Kinase reaction is incubated for 120 min at room temp and reactions are spotted onto P81 ion exchange paper (Whatman #3698-915), and then washed extensively in 0.75% phosphoric acid, prior to reading the radioactivity counts. For JAK2 (Invitrogen) kinase assay the peptide substrate poly[Glu:Tyr](4:1), 0.2 mg/ml is used, in the reaction carried out the same as for TYK2.
# JAK2 JH1 kinase = JAK2 JH1 kinase (Homo sapiens (Human), UniProt O60674); experiment: JAK2 radioactive kinase assay; format: biochemical; settings: active kinase assay, ATP 10 μM
# Experimental: as §1
# Chain of TYK2 JH1 kinase (P29597 833-1187): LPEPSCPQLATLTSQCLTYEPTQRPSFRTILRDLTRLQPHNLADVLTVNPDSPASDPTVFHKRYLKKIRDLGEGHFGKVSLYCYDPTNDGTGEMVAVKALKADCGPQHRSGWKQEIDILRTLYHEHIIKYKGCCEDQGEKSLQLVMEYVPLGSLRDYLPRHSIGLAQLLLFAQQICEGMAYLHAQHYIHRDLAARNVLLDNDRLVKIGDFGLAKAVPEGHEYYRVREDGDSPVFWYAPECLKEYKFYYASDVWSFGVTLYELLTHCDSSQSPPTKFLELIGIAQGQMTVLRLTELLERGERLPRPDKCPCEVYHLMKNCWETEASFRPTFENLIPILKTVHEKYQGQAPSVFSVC
# Chain of JAK2 JH1 kinase (O60674 808-1132): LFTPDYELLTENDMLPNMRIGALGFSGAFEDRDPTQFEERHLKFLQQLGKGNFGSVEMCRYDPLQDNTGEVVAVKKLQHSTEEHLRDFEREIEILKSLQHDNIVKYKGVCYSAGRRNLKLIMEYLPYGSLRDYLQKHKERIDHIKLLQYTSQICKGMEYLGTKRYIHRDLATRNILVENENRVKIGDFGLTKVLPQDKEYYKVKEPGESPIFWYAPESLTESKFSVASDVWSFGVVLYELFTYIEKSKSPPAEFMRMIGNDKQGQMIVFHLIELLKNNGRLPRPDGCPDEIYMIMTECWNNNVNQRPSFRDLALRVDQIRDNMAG
SMILES,inhibitory activity against TYK2 JH1 kinase function (TYK2 JH1 kinase),inhibitory activity against JAK2 JH1 kinase function (JAK2 JH1 kinase)
"COc1c(Nc2cc(NC(=O)C3CC3)ncc2-c2ncc(Cl)s2)cccc1-c1nnn(C)n1 [VIII-1, N-(5-(5-chlorothiazol-2-yl)-4-((2-methoxy-3-(2-methyl-2H-tetrazol-5-yl)phenyl)amino)pyridin-2-yl)cyclopropanecarboxamide]",no detectable inhibitory activity,no detectable inhibitory activity
"COc1c(Nc2cc(NC(=O)C3CC3)ncc2-c2ncc(F)s2)cccc1-c1nnn(C)n1 [VIII-2, N-(5-(5-fluorothiazol-2-yl)-4-((2-methoxy-3-(2-methyl-2H-tetrazol-5-yl)phenyl)amino)pyridin-2-yl)cyclopropanecarboxamide]",no detectable inhibitory activity,no detectable inhibitory activity
"COCc1ccnc(Nc2cc(Nc3cccc(-c4nnn(C)n4)c3OC)c3c(=O)n(C)[nH]c3n2)c1 [Compound I-2, 4-((2-methoxy-3-(2-methyl-2H-tetrazol-5-yl)phenyl)amino)-6-((4-(methoxymethyl)pyridin-2-yl)amino)-2-methyl-1,2-dihydro-3H-pyrazolo[3,4-b]pyridin-3-one]",no detectable inhibitory activity,–
"COc1c(Nc2cc(NC(=O)C3CC3)ncc2-c2nnc(C(F)(F)F)o2)cccc1-c1ncn(C)n1 [VIII-3, N-(4-((2-methoxy-3-(1-methyl-1H-1,2,4-triazol-3-yl)phenyl)amino)-5-(5-(trifluoromethyl)-1,3,4-oxadiazol-2-yl)pyridin-2-yl)cyclopropanecarboxamide]",no detectable inhibitory activity,no detectable inhibitory activity

# More lines, main results first:
inhibitory activity against TYK2 JH1 kinase function (TYK2 JH1 kinase),SMILES,inhibitory activity against JAK2 JH1 kinase function (JAK2 JH1 kinase)
no detectable inhibitory activity,"COc1c(Nc2cc(NC(=O)C3CC3)nc3[nH]n(C)c(=O)c23)cccc1-c1nnn(C)n1 [Compound I-1, N-(4-((2-methoxy-3-(2-methyl-2H-tetrazol-5-yl)phenyl)amino)-2-methyl-3-oxo-2,3-dihydro-1H-pyrazolo[3,4-b]pyridin-6-yl)cyclopropanecarboxamide]",–
no detectable inhibitory activity,"COC(=O)c1nnc(-c2cnc(NC(=O)C3CC3)cc2Nc2cccc(-c3ncn(C)n3)c2OC)o1 [VIII-4, methyl 5-(6-(cyclopropanecarboxamido)-4-((2-methoxy-3-(1-methyl-1H-1,2,4-triazol-3-yl)phenyl)amino)pyridin-3-yl)-1,3,4-oxadiazole-2-carboxylate]",no detectable inhibitory activity
